From PubChem BioAssay (NCI)
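The compound was tested at five concentrations on cells cultured in 96-well plates, with a 48-hour exposure period. At the GI50, growth is halved. TGI is the concentration that stops growth completely.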

Assays:
Assay in all cases: growth of human tumour cells (NCI), 48 h
T-47D breast = tested on: T-47D breast
UO-31 renal = tested on: UO-31 renal
RPMI-8226 leukemia = tested on: RPMI-8226 leukemia
SK-MEL-5 melanoma = tested on: SK-MEL-5 melanoma
EKVX NSCLC = tested on: EKVX NSCLC
NCI-H522 lung = tested on: NCI-H522 lung
SR leukemia = tested on: SR leukemia
SNB-19 CNS = tested on: SNB-19 CNS
HCC-2998 colon = tested on: HCC-2998 colon
NCI-H460 lung = tested on: NCI-H460 lung
COLO 205 colon = tested on: COLO 205 colon
SNB-75 CNS = tested on: SNB-75 CNS
OVCAR-8 ovarian = tested on: OVCAR-8 ovarian
NCI/ADR-RES ovarian = tested on: NCI/ADR-RES ovarian
MDA-MB-435 = tested on: MDA-MB-435
HS 578T breast = tested on: HS 578T breast
KM12 colon = tested on: KM12 colon
SK-MEL-2 melanoma = tested on: SK-MEL-2 melanoma
DU-145 prostate = tested on: DU-145 prostate
PC-3 prostate = tested on: PC-3 prostate
HOP-92 NSCLC = tested on: HOP-92 NSCLC
SF-539 CNS = tested on: SF-539 CNS
SF-268 CNS = tested on: SF-268 CNS
MALME-3M melanoma = tested on: MALME-3M melanoma
LOX IMVI melanoma = tested on: LOX IMVI melanoma
MOLT-4 leukemia = tested on: MOLT-4 leukemia
SW-620 colon = tested on: SW-620 colon
M14 melanoma = tested on: M14 melanoma
CCRF-CEM leukemia = tested on: CCRF-CEM leukemia
SF-295 CNS = tested on: SF-295 CNS
SK-MEL-28 melanoma = tested on: SK-MEL-28 melanoma
MDA-MB-231 breast = tested on: MDA-MB-231 breast
NCI-H226 lung = tested on: NCI-H226 lung
K-562 leukemia = tested on: K-562 leukemia
786-0 renal = tested on: 786-0 renal
UACC-62 melanoma = tested on: UACC-62 melanoma
OVCAR-4 ovarian = tested on: OVCAR-4 ovarian
HCT-15 colon = tested on: HCT-15 colon
SN12C renal = tested on: SN12C renal
UACC-257 melanoma = tested on: UACC-257 melanoma
OVCAR-3 ovarian = tested on: OVCAR-3 ovarian
OVCAR-5 ovarian = tested on: OVCAR-5 ovarian
SK-OV-3 ovarian = tested on: SK-OV-3 ovarian
CAKI-1 renal = tested on: CAKI-1 renal
ACHN renal = tested on: ACHN renal
BT-549 breast = tested on: BT-549 breast
TK-10 renal = tested on: TK-10 renal
HT29 colon = tested on: HT29 colon
HL-60(TB) leukemia = tested on: HL-60(TB) leukemia
HOP-62 NSCLC = tested on: HOP-62 NSCLC
MCF7 breast = tested on: MCF7 breast
NCI-H23 lung = tested on: NCI-H23 lung
A549 NSCLC = tested on: A549 NSCLC
RXF 393 renal = tested on: RXF 393 renal
U251 CNS = tested on: U251 CNS
IGROV1 ovarian = tested on: IGROV1 ovarian

O=c1[nH]c2c3ccncc3cc(-c3cccc(Cl)c3)c2c2cnccc12
GI50 (T-47D breast): > 100 µM | TGI (T-47D breast): > 100 µM | GI50 (UO-31 renal): > 100 µM | TGI (UO-31 renal): > 100 µM | GI50 (RPMI-8226 leukemia): > 100 µM | TGI (RPMI-8226 leukemia): > 100 µM | GI50 (SK-MEL-5 melanoma): > 100 µM | TGI (SK-MEL-5 melanoma): > 100 µM | GI50 (EKVX NSCLC): > 100 µM | TGI (EKVX NSCLC): > 100 µM | GI50 (NCI-H522 lung): 30.4 µM | TGI (NCI-H522 lung): > 100 µM | GI50 (SR leukemia): 0.442 µM | TGI (SR leukemia): > 100 µM | GI50 (SNB-19 CNS): 25.6 µM | TGI (SNB-19 CNS): > 100 µM | GI50 (HCC-2998 colon): > 100 µM | TGI (HCC-2998 colon): > 100 µM | GI50 (NCI-H460 lung): > 100 µM | TGI (NCI-H460 lung): > 100 µM | GI50 (COLO 205 colon): > 100 µM | TGI (COLO 205 colon): > 100 µM | GI50 (SNB-75 CNS): 17.7 µM | TGI (SNB-75 CNS): 89.7 µM | GI50 (OVCAR-8 ovarian): 11.7 µM | TGI (OVCAR-8 ovarian): > 100 µM | GI50 (NCI/ADR-RES ovarian): 39.9 µM | TGI (NCI/ADR-RES ovarian): > 100 µM | GI50 (MDA-MB-435): > 100 µM | TGI (MDA-MB-435): > 100 µM | GI50 (HS 578T breast): 28.8 µM | TGI (HS 578T breast): > 100 µM | GI50 (KM12 colon): > 100 µM | TGI (KM12 colon): > 100 µM | GI50 (SK-MEL-2 melanoma): 47.9 µM | TGI (SK-MEL-2 melanoma): > 100 µM | GI50 (DU-145 prostate): > 100 µM | TGI (DU-145 prostate): > 100 µM | GI50 (PC-3 prostate): > 100 µM | TGI (PC-3 prostate): > 100 µM | GI50 (HOP-92 NSCLC): 69.5 µM | TGI (HOP-92 NSCLC): > 100 µM | GI50 (SF-539 CNS): 19.6 µM | TGI (SF-539 CNS): > 100 µM | GI50 (SF-268 CNS): 20.8 µM | TGI (SF-268 CNS): > 100 µM | GI50 (MALME-3M melanoma): > 100 µM | TGI (MALME-3M melanoma): > 100 µM | GI50 (LOX IMVI melanoma): 2.04 µM | TGI (LOX IMVI melanoma): > 100 µM | GI50 (MOLT-4 leukemia): > 100 µM | TGI (MOLT-4 leukemia): > 100 µM | GI50 (SW-620 colon): > 100 µM | TGI (SW-620 colon): > 100 µM | GI50 (M14 melanoma): > 100 µM | TGI (M14 melanoma): > 100 µM | GI50 (CCRF-CEM leukemia): > 100 µM | TGI (CCRF-CEM leukemia): > 100 µM | GI50 (SF-295 CNS): 34 µM | TGI (SF-295 CNS): > 100 µM | GI50 (SK-MEL-28 melanoma): > 100 µM | TGI (SK-MEL-28 melanoma): > 100 µM | GI50 (MDA-MB-231 breast): 4.71 µM | TGI (MDA-MB-231 breast): > 100 µM | GI50 (NCI-H226 lung): 73.8 µM | TGI (NCI-H226 lung): > 100 µM | GI50 (K-562 leukemia): > 100 µM | TGI (K-562 leukemia): > 100 µM | GI50 (786-0 renal): 18.8 µM | TGI (786-0 renal): 79.5 µM | GI50 (UACC-62 melanoma): 44.3 µM | TGI (UACC-62 melanoma): > 100 µM | GI50 (OVCAR-4 ovarian): > 100 µM | TGI (OVCAR-4 ovarian): > 100 µM | GI50 (HCT-15 colon): > 100 µM | TGI (HCT-15 colon): > 100 µM | GI50 (SN12C renal): 84.2 µM | TGI (SN12C renal): > 100 µM | GI50 (UACC-257 melanoma): > 100 µM | TGI (UACC-257 melanoma): > 100 µM | GI50 (OVCAR-3 ovarian): 3.7 µM | TGI (OVCAR-3 ovarian): > 100 µM | GI50 (OVCAR-5 ovarian): > 100 µM | TGI (OVCAR-5 ovarian): > 100 µM | GI50 (SK-OV-3 ovarian): 24.7 µM | TGI (SK-OV-3 ovarian): > 100 µM | GI50 (CAKI-1 renal): > 100 µM | TGI (CAKI-1 renal): > 100 µM | GI50 (ACHN renal): 1.91 µM | TGI (ACHN renal): > 100 µM | GI50 (BT-549 breast): 7.94 µM | TGI (BT-549 breast): > 100 µM | GI50 (TK-10 renal): 40.2 µM | TGI (TK-10 renal): > 100 µM | GI50 (HT29 colon): > 100 µM | TGI (HT29 colon): > 100 µM | GI50 (HL-60(TB) leukemia): > 100 µM | TGI (HL-60(TB) leukemia): > 100 µM | GI50 (HOP-62 NSCLC): 27.9 µM | TGI (HOP-62 NSCLC): 91.5 µM | GI50 (MCF7 breast): > 100 µM | TGI (MCF7 breast): > 100 µM | GI50 (NCI-H23 lung): 12.9 µM | TGI (NCI-H23 lung): > 100 µM | GI50 (A549 NSCLC): > 100 µM | TGI (A549 NSCLC): > 100 µM | GI50 (RXF 393 renal): 0.737 µM | TGI (RXF 393 renal): 52.3 µM | GI50 (U251 CNS): 4.52 µM | TGI (U251 CNS): > 100 µM | GI50 (IGROV1 ovarian): 72.2 µM | TGI (IGROV1 ovarian): > 100 µM
